Measurements reported in ChEMBL document CHEMBL1201862, “PubChem BioAssay data set” (2004).
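A five-concentration, 48-hour dose response in 96-well plates underlies each endpoint, interpolated linearly between surrounding concentrations. GI50: concentration for 50% inhibition of growth.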 Active and inactive are the calls of the source. Rule as the data show it: active = GI50 up to about 1.1 µM and inactive = higher.

Experiments:
Experiment in all cases: NCI anticancer screen, dose series, 48 h
A549 = tested on: A549
COLO 205 = tested on: COLO 205
EKVX = tested on: EKVX
HOP-92 = tested on: HOP-92
HT-29 = tested on: HT-29
Hs-578T = tested on: Hs-578T
MDA-MB-231 = tested on: MDA-MB-231
NCI-H226 = tested on: NCI-H226
NCI-H522 = tested on: NCI-H522
NCI/ADR-RES = tested on: NCI/ADR-RES
OVCAR-8 = tested on: OVCAR-8
SF-539 = tested on: SF-539
SK-MEL-5 = tested on: SK-MEL-5
SW-620 = tested on: SW-620
UACC-257 = tested on: UACC-257
HCC 2998 = tested on: HCC 2998
NCI-H460 = tested on: NCI-H460
SF-295 = tested on: SF-295
SR = tested on: SR

Measured: GI50

C/C(=N\n1c(Cc2ccccc2)n[nH]c1=O)c1ccccc1
inactive: A549 > 100 µM | COLO 205 > 100 µM | EKVX 94.4 µM | HOP-92 26.8 µM | HT-29 > 100 µM | Hs-578T > 100 µM | MDA-MB-231 > 100 µM | NCI-H226 > 100 µM | NCI-H522 > 100 µM | NCI/ADR-RES > 100 µM | OVCAR-8 > 100 µM | SF-539 > 100 µM | SK-MEL-5 > 100 µM | SW-620 > 100 µM | UACC-257 > 100 µM

O=[N+]([O-])c1ccc(N/N=C2/CC3=C2CCCCCCCCCC3)c([N+](=O)[O-])c1
inactive: A549 > 100 µM | COLO 205 > 100 µM | EKVX > 100 µM | HCC 2998 > 100 µM | HT-29 > 100 µM | Hs-578T 39.3 µM | MDA-MB-231 32.7 µM | NCI-H226 > 100 µM | NCI-H460 > 100 µM | NCI-H522 > 100 µM | NCI/ADR-RES > 100 µM | OVCAR-8 > 100 µM | SF-295 > 100 µM | SK-MEL-5 > 100 µM | SW-620 > 100 µM | UACC-257 > 100 µM

COc1ccc2c3c1O[C@H]1[C@@H](O)CC[C@@]4(O)[C@@H](C2)N(C)CC[C@]314
inactive: A549 > 100 µM | COLO 205 > 100 µM | EKVX > 100 µM | HOP-92 > 100 µM | HT-29 > 100 µM | Hs-578T > 100 µM | MDA-MB-231 > 100 µM | NCI-H226 > 100 µM | NCI-H522 > 100 µM | NCI/ADR-RES > 100 µM | OVCAR-8 > 100 µM | SF-295 > 100 µM | SF-539 > 100 µM | SK-MEL-5 > 100 µM | SR > 100 µM | SW-620 > 100 µM | UACC-257 > 100 µM

CC(C)(CO)N1C(=O)c2ccccc2C1(O)c1ccc(Cl)cc1 (configuration not stated)
inactive: A549 > 100 µM | COLO 205 > 100 µM | EKVX > 100 µM | HCC 2998 > 100 µM | HT-29 > 100 µM | Hs-578T > 100 µM | MDA-MB-231 > 100 µM | NCI-H226 > 100 µM | NCI-H460 84.9 µM | NCI-H522 > 100 µM | NCI/ADR-RES > 100 µM | OVCAR-8 > 100 µM | SF-295 > 100 µM | SK-MEL-5 > 100 µM | SW-620 > 100 µM | UACC-257 > 100 µM

C=CCN1C(=O)CC1N(CC=C)S(=O)(=O)c1ccc(C)cc1 (configuration not stated)
inactive: A549 > 100 µM | COLO 205 > 100 µM | EKVX > 100 µM | HCC 2998 > 100 µM | HOP-92 > 100 µM | HT-29 > 100 µM | Hs-578T > 100 µM | NCI-H226 > 100 µM | NCI-H460 > 100 µM | NCI-H522 > 100 µM | NCI/ADR-RES > 100 µM | OVCAR-8 > 100 µM | SF-295 > 100 µM | SK-MEL-5 > 100 µM | SR 82.8 µM | SW-620 > 100 µM | UACC-257 > 100 µM

CCC1(C)C=Cc2c(cc(OC)c3c(=O)c4ccccc4n(C)c23)O1 (configuration not stated)
inactive: A549 3.94 µM | COLO 205 > 10 µM | EKVX > 10 µM | HCC 2998 > 10 µM | HOP-92 > 10 µM | HT-29 7.69 µM | Hs-578T 5.6 µM | MDA-MB-231 > 10 µM | NCI-H226 > 10 µM | NCI-H460 8 µM | NCI-H522 > 10 µM | NCI/ADR-RES > 10 µM | OVCAR-8 > 10 µM | SF-295 3.56 µM | SF-539 4.47 µM | SK-MEL-5 > 10 µM | SW-620 > 10 µM | UACC-257 > 10 µM

CCCCCCc1cc2cc(-c3csc(-c4ccc(OC)cc4)n3)c(=O)oc2cc1O
inactive: A549 16.7 µM | COLO 205 51.8 µM | EKVX 20.2 µM | HCC 2998 15.3 µM | HOP-92 3.57 µM | HT-29 96.2 µM | Hs-578T 15.8 µM | MDA-MB-231 11 µM | NCI-H226 14 µM | NCI-H460 12.2 µM | SF-295 13.9 µM | SF-539 12.8 µM | SK-MEL-5 9.06 µM | SR 19.6 µM | SW-620 6.61 µM | UACC-257 8.51 µM

COc1ccc(N(c2ccc(C#N)cc2)c2ccc(C#N)cc2)cc1
inactive: A549 > 100 µM | COLO 205 31.9 µM | EKVX > 100 µM | HOP-92 > 100 µM | HT-29 9.89 µM | Hs-578T > 100 µM | MDA-MB-231 > 100 µM | NCI-H226 > 100 µM | NCI-H460 > 100 µM | NCI-H522 3.78 µM | OVCAR-8 > 100 µM | SF-295 > 100 µM | SF-539 > 100 µM | SK-MEL-5 > 100 µM | SW-620 > 100 µM | UACC-257 > 100 µM

CC1=CC2(C)C=C[C@@H]1C(=O)[C@@]1(C)CC[C@@](O)(C(C)C)[C@H]1CC2
inactive: A549 34.6 µM | COLO 205 20.7 µM | EKVX 24.4 µM | HCC 2998 17.5 µM | HOP-92 14.4 µM | HT-29 16.1 µM | Hs-578T 25.4 µM | MDA-MB-231 17.5 µM | NCI-H226 23.4 µM | NCI-H460 18.4 µM | NCI/ADR-RES 20.2 µM | OVCAR-8 17.1 µM | SF-295 16.7 µM | SF-539 18.9 µM | SK-MEL-5 19.7 µM | SW-620 18.8 µM | UACC-257 16.4 µM

CCCCCCCCCCCCCCCCOCC(Cl)COP(=O)(O)OP(=O)(O)OCC1OC(n2cnc3c(N)ncnc32)C(O)C1O (configuration not stated)
inactive: A549 > 100 µM | COLO 205 > 100 µM | EKVX > 100 µM | HCC 2998 > 100 µM | HOP-92 70.8 µM | HT-29 > 100 µM | Hs-578T 32.4 µM | MDA-MB-231 38.7 µM | NCI-H226 36.7 µM | NCI-H460 52.4 µM | NCI-H522 > 100 µM | NCI/ADR-RES > 100 µM | OVCAR-8 > 100 µM | SF-295 > 100 µM | SF-539 76 µM | SK-MEL-5 > 100 µM | SW-620 > 100 µM | UACC-257 > 100 µM

Cc1ccc(-c2cc(-c3ccc(Cl)cc3)nc(/N=C3\C(=O)N(CN4CCOCC4)c4ccccc43)n2)cc1
inactive: A549 17.5 µM | COLO 205 26 µM | EKVX 30.8 µM | HCC 2998 18.6 µM | HOP-92 22.5 µM | HT-29 20.1 µM | Hs-578T 22.9 µM | MDA-MB-231 33.3 µM | NCI-H226 35.6 µM | NCI-H460 14 µM | NCI-H522 14.3 µM | NCI/ADR-RES 27.2 µM | OVCAR-8 19.5 µM | SF-295 40.9 µM | SF-539 19.5 µM | SK-MEL-5 17.6 µM | SW-620 17 µM | UACC-257 19.5 µM

COc1cc(C/C=C/c2ccccc2)c(OC)cc1O [VIOLASTYRENE]
inactive: A549 43.9 µM | COLO 205 22.3 µM | EKVX 18.1 µM | HCC 2998 16.7 µM | HOP-92 15.4 µM | HT-29 20.9 µM | Hs-578T 30.8 µM | MDA-MB-231 15.1 µM | NCI-H226 24.5 µM | NCI-H460 20.3 µM | NCI-H522 20.9 µM | NCI/ADR-RES 26.5 µM | OVCAR-8 12.6 µM | SF-539 17.9 µM | SK-MEL-5 23.7 µM | SW-620 20 µM | UACC-257 29.4 µM

CC(NC(=O)C(N)CC(=O)O)NC(=O)N1CCOCC1 (configuration not stated)
inactive: A549 > 100 µM | COLO 205 > 100 µM | EKVX > 100 µM | HT-29 > 100 µM | Hs-578T > 100 µM | MDA-MB-231 > 100 µM | NCI-H226 > 100 µM | NCI-H460 > 100 µM | NCI-H522 > 100 µM | NCI/ADR-RES > 100 µM | OVCAR-8 > 100 µM | SF-295 > 100 µM | SF-539 > 100 µM | SK-MEL-5 > 100 µM | SW-620 > 100 µM | UACC-257 > 100 µM

CCCCC(=O)/C=c1/cc(C)[nH]c2cccc3cnn1c32
inactive: A549 > 100 µM | COLO 205 > 100 µM | EKVX > 100 µM | HOP-92 68.9 µM | HT-29 60.1 µM | Hs-578T > 100 µM | MDA-MB-231 > 100 µM | NCI-H226 > 100 µM | NCI-H522 > 100 µM | NCI/ADR-RES > 100 µM | OVCAR-8 > 100 µM | SF-295 > 100 µM | SF-539 > 100 µM | SK-MEL-5 > 100 µM | SR 48 µM | SW-620 > 100 µM | UACC-257 > 100 µM

NC(=O)NC(=O)C1CCCCC1C(=O)O (configuration not stated)
inactive: A549 > 100 µM | COLO 205 > 100 µM | EKVX > 100 µM | HOP-92 > 100 µM | HT-29 > 100 µM | Hs-578T > 100 µM | MDA-MB-231 > 100 µM | NCI-H226 > 100 µM | NCI-H460 > 100 µM | NCI-H522 > 100 µM | NCI/ADR-RES > 100 µM | OVCAR-8 > 100 µM | SF-295 > 100 µM | SF-539 > 100 µM | SK-MEL-5 > 100 µM | SW-620 > 100 µM | UACC-257 > 100 µM

Cc1ccc(S(=O)(=O)NC(=O)NC(CCC(N)=O)C(=O)O)cc1 (configuration not stated)
inactive: A549 > 100 µM | COLO 205 > 100 µM | HOP-92 64.3 µM | HT-29 > 100 µM | Hs-578T > 100 µM | MDA-MB-231 > 100 µM | NCI-H460 > 100 µM | NCI-H522 > 100 µM | NCI/ADR-RES > 100 µM | OVCAR-8 > 100 µM | SF-295 > 100 µM | SF-539 > 100 µM | SK-MEL-5 > 100 µM | SR > 100 µM | SW-620 > 100 µM | UACC-257 > 100 µM
